# Where “and” joins values, the source holds several entries; their conditions need not be identical. Equal values may be shown once.
# How the values were obtained:
# [1] = test system: subchronic PCP-induced cognitive deficits in mice; test: T-maze continuous alternation task in subchronic PCP mice; type: in vivo, Swiss CD-1 mice; settings: n=10
# Source text: Phenycyclidine (PCP) is an antagonist of NMDA receptor, its administration in healthy humans produces schizophrenia-like symptoms, therefore PCP is often used to mimic schizophrenia in rodents. […] In addition, brain samples were collected shorlty after the T-Maze test to measure the levels of cerebral biomarkers involved in synaptic plasticity.
# Sixty (60) male Swiss CD-1 mice were purchased from Janvier Labs (Le Genest-Saint-Isle, France) one week before the start of the study for acclimation. Mice were group-housed (6-8 mice per Eurostandard type Ill cage) and maintained in a room with controlled temperature (21-22° C.) under a reversed 12 h/12 h light-dark cycle (lights on: 5:[…]; lights off: 05:30 am) with food and water available ad libitum. The weight of mice ranged from 25.9 and 36.4 g. […]
# Nicotine used as a positive control was administered at a dose of 0.4 mg/kg intraperitoneally 30 minutes prior to the T-maze trial
# After administration of compounds at different timepoints all animals were tested for continuous alternation task in the T-Maze. The T-maze apparatus was made of gray Plexiglas with a main stem (55-cm long×10-cm wide×20-cm high) and two arms (30-cm long×10-cm wide×20-cm high) positioned at a 90-degree angle relative to the main stem. A start box (15-cm long×10-cm wide) was separated from the main stem by a guillotine door. Horizontal doors were also provided to close specific arms during the force choice alternation task. The experimental protocol consisted in one single session that started with 1 “forced-choice” trial, followed by 14 “free-choice” trials (Gerlai, 1998). In the first “forced-choice” trial, the mouse was confined 5 s in the start arm and then released while either the left or right goal arm was blocked by closing the sliding door. Then, it walked through the maze, eventually entered the open goal arm, and then returned to the start position. Immediately after the mouse came back to the start position, the left or right goal door was opened (i.e. the two goal doors were opened), and the mouse could choose freely between the left and right goal arms (first “free choice trial”). The mouse was considered as entered in the arm when it placed its four paws in the arm. The opposite goal door was then closed until the animal returned to the start arm. Then, a second “free choice trial” began by the opening of the closed goal door (i.e. the two goal doors were opened), leaving the choice to the mouse to enter either into the right or the left arm. The session was considered finished as soon as 14 free-choice trials had been performed in less than 10 min, and the mouse was removed from the maze. The time needed to reach these 14 “free-choices” was recorded.
# The percent of spontaneous alternations was calculated as number of spontaneous alternations divided by the number of free-choice trials, an index of spatial short-term working memory. The apparatus was cleaned between each animal using alcohol (70%). Urine and feces were removed from the maze. During the trials, animal handling and the visibility of the operator were minimized as much as possible. Animals were tested in a random and blind manner.
# [2] = target: T1, GluN2A subunit of NMDAR (isolated evoked NMDAR currents in CA1 hippocampal neurons) (Mus musculus, UniProt P35436); test: patch-clamp phase 1: NMDAR EPSCs with GluN2B subunits blocked by Ifenprodil; type: cell-based, C57Bl6/J mice; settings: Ifenprodil 3 μM alone; control = 100; mean of 10 cells
# T1 construct: Sagittal hippocampal brain slices were obtained using standard brain slicing methods; from tissue; host or cells: acute hippocampal slices of C57Bl6/J mice, CA1 pyramidal neurons
# Source text: (§1) Selective antagonists of GluN2A and GluN2B subunits were also used.
# (§2) Twelve (C57Bl6/J) male mice 4-5 weeks-old were obtained from Charles River, France and housed in an animal facility. Animal care was compliant with national and local Ethics committee recommendations. Sagittal hippocampal brain slices were obtained using standard brain slicing methods (approximately 6 slices per mouse) (Knobloch et al. 2007). Mice were anesthetized with isoflurane and then decapitated. […]
# (§3) The signal was amplified with an Axopatch 200B amplifier (Molecular Devices, Union City, CA), digitized by a Digidata 1550 interface (Molecular Devices). Recordings were acquired using Clampex 10 (Molecular Devices) and analyzed with Clampfit (Molecular Devices). […]
# (§4) A total of 12 mice was dedicated to the study. A total of 23 neurons were recorded (10 per group (phases 1 and 2) and 3 in a control phase (phase 0) as follow. In each recording session, 10 EPSCs were induced in response to Schaffer collateral stimulations. Measurements of the amplitudes (average of 10 EPCS) were assessed. Phase 0 represented a validation phase aiming at confirming that GluN2A and GluN2B were the predominant NR2 subunits involved in the EPSCs evoked by Schaffer collateral stimulation. We expected the residual current at the end of phase 0 to be minimal.
# [3] = test system: NMDA EPSCs in hippocampal CA1 pyramidal neurons; test: patch-clamp phase 0: sequential application of NVP-AAM077 and Ifenprodil on NMDA EPSCs; type: cell-based, C57Bl6/J mice; settings: 3 cells, data not shown
# Protocol: Twelve (C57Bl6/J) male mice 4-5 weeks-old were obtained from Charles River, France and housed in an animal facility. Animal care was compliant with national and local Ethics committee recommendations. Sagittal hippocampal brain slices were obtained using standard brain slicing methods (approximately 6 slices per mouse) (Knobloch et al. 2007). Mice were anesthetized with isoflurane and then decapitated. […] Acute slices (350 μm thick) were prepared using a vibratome (VT 1000S; Leica Microsystems, Bannockburn, IL). Sections were incubated in standard aCSF at room temperature for at least 1 h before recordings. […] Recordings were acquired using Clampex 10 (Molecular Devices) and analyzed with Clampfit (Molecular Devices). […] A total of 23 neurons were recorded (10 per group (phases 1 and 2) and 3 in a control phase (phase 0) as follow. In each recording session, 10 EPSCs were induced in response to Schaffer collateral stimulations. Measurements of the amplitudes (average of 10 EPCS) were assessed. Phase 0 represented a validation phase aiming at confirming that GluN2A and GluN2B were the predominant NR2 subunits involved in the EPSCs evoked by Schaffer collateral stimulation. We expected the residual current at the end of phase 0 to be minimal.
# [4] = test system: scopolamine-induced spatial short-term working memory deficits in mice; test: Y-maze spontaneous alternation in the scopolamine mouse model of amnesia; type: in vivo, Swiss mice; settings: for effect on scopolamine-induced spatial short-term working memory impairments (Y-maze): data not shown; for spontaneous alternance in Y-maze: n=6
# Protocol: Male Swiss mice, weighing 30-35 g, from JANVIER (Saint Berthevin, France), were housed in groups with access to food and water ad libitum, except during behavioral experiments. They were kept in a temperature and humidity-controlled animal facility on a 12 h/12 h light/dark cycle (lights off at 07:[…]). Mice were numbered by marking their tail with permanent markers. All animal procedures were conducted in strict adherence to the European Union directive of Sep. 22, 2010 (2010/63/UE). In each cage (n=6 per cage), treatment regimen was the same. Animals were tested in a random and blind manner.
# Donepezil (DPZ) used as positive control was administered per os at a dose of 1 mg/kg once 1 h before the YM test.
# Scopolamine was administered at a dose of 0.5 mg/kg by subcutaneous injection 30 minutes before the YM session.
# After administration of compounds at different timepoints all animals were tested for spontaneous alternation performance in the YM, an index of spatial working memory. The YM was designed according to Itoh and collaborators (1993) and Hiramatsu and Inoue (1999) and is made of grey polyvinylchloride. Each arm is 40-cm long, 13-cm high, 3-cm wide at the bottom, 10-cm wide at the top, and converging at an equal angle. Each mouse was placed at the end of one arm and allowed to move freely through the maze during an 8-min session. The series of arm entries, including possible returns into the same arm, were checked visually. An alternation was defined as entries into all three arms on consecutive occasions. The number of maximum alternations is therefore the total number of arm entries minus two and the percentage of alternation was calculated as (actual alternations/maximum alternations)×100. Parameters included the percentage of alternation, called memory index, and total number of arm entries, called exploration index (Maurice et al., 1996, 1988; Meunier et al., 2006; Villard et al., 2009, 2011).
# Animals showing an extreme behavior (alternation percentage <20% or >90% or number of arm entries <10) would have been discarded from the calculation. No animal was discarded accordingly.
# [5] = target: T2, GluN2B subunit of NMDAR (isolated evoked NMDAR currents in CA1 hippocampal neurons) (Mus musculus, UniProt Q01097); test: patch-clamp phase 2: NMDAR EPSCs with GluN2A subunits blocked by NVP-AAM077; type: cell-based, C57Bl6/J mice; settings: NVP-AAM077 0.4 μM alone; control = 100; mean of 10 cells
# T2 construct: Sagittal hippocampal brain slices were obtained using standard brain slicing methods; from tissue; host or cells: acute hippocampal slices of C57Bl6/J mice, CA1 pyramidal neurons
# Source text: as §1, §2, §3, §4
# T2 sequence (Q01097 27-1482, other chains not shown): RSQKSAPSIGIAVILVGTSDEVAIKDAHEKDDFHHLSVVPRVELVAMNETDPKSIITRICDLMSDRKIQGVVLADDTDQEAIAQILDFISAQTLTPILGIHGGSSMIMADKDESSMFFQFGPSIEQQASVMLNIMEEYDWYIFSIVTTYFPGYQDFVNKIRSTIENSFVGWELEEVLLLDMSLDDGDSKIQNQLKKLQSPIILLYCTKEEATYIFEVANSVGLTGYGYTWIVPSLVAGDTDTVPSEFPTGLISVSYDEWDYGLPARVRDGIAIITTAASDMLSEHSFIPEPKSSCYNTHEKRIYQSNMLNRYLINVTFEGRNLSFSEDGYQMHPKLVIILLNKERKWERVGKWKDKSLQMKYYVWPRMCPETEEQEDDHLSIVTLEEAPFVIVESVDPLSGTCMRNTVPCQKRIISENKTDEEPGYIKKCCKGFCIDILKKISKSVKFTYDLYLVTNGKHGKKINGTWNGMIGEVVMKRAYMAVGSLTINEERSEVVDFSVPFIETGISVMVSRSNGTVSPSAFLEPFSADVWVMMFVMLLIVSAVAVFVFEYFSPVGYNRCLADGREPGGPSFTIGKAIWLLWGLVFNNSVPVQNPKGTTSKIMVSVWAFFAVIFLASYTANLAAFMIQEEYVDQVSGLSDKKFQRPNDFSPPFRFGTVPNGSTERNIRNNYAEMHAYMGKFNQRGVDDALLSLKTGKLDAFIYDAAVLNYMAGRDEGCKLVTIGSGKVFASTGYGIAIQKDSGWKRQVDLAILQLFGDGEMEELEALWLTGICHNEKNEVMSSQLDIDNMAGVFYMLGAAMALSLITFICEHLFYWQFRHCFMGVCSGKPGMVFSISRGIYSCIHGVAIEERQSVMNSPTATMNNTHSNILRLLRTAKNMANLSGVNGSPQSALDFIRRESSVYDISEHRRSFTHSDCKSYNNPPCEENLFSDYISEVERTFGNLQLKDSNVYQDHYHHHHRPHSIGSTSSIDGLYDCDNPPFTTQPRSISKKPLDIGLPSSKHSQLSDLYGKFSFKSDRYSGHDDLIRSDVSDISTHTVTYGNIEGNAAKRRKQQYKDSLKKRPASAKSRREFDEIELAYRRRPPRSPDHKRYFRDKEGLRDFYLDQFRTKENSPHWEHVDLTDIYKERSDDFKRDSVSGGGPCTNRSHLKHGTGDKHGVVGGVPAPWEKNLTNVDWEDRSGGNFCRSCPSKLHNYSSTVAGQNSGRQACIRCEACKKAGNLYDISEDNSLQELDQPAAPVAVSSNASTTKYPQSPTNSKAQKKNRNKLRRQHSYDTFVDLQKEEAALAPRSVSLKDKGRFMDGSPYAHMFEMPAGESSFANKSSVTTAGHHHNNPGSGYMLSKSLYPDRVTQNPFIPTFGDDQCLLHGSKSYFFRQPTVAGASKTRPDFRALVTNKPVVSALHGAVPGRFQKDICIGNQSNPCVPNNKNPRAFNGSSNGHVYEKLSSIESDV
# T1 sequence (P35436 23-1464, other chains not shown): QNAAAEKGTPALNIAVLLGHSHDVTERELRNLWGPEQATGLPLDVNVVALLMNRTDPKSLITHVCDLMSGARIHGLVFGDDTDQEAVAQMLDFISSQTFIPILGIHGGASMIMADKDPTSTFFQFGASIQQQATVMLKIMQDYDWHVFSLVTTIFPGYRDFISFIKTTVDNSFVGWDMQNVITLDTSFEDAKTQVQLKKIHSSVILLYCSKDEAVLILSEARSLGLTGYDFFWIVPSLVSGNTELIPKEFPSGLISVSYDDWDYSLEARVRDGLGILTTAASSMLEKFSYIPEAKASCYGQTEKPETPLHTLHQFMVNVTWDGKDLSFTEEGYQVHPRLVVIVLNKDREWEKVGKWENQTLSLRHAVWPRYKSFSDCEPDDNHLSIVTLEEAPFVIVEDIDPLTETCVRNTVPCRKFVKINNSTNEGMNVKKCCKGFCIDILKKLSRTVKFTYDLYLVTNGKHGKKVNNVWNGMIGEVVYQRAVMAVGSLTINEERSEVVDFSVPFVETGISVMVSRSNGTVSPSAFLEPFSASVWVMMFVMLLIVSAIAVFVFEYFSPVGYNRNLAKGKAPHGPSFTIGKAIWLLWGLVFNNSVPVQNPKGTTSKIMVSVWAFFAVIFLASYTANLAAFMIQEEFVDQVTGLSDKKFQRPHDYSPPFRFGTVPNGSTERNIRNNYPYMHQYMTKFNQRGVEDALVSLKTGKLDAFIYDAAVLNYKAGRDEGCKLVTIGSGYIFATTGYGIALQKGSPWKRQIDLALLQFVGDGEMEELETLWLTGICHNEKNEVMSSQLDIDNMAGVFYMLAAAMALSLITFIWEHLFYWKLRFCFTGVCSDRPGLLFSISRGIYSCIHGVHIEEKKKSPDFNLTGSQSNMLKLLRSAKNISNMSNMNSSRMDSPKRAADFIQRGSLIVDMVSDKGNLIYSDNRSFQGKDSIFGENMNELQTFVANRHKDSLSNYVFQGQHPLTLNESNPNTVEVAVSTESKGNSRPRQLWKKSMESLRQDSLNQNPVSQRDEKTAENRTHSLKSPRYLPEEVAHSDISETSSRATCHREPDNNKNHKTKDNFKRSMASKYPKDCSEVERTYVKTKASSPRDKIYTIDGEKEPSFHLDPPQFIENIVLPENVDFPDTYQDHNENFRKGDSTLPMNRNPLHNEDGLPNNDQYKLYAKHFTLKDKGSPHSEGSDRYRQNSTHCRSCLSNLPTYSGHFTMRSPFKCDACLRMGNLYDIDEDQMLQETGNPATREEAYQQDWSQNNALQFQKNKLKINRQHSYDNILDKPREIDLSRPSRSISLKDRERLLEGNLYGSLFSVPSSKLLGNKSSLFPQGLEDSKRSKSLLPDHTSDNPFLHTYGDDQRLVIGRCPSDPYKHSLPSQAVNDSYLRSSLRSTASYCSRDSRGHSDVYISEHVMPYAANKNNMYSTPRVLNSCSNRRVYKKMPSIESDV
molecule,measurement,setting,value
"c1ccc(C2(N3CCCCC3)CCCCC2)cc1 [PCP, phencyclidine, reference compound]",Spontaneous alternations in T-maze,"[1]; PCP 0.2 mg/kg s.c. twice daily D1-D11, vehicle-treated, saline control 66.43",31% and 30.71%
CC(C(O)c1ccc(O)cc1)N1CCC(Cc2ccccc2)CC1 (stereo not shown) [Ifenprodil],Normalized amplitude of evoked isolated NMDA excitatory postsynaptic currents,[2],78.74 % of control
same,NMDA EPSCs amplitude,[3]; NVP-AAM077 0.4 μM + Ifenprodil 3 μM,significantly decreased
W-S-G-W-S-S-C-S-R-S-C-G [NX210] (WSGWSSCSRSCG; reduced linear form),effect on scopolamine-induced spatial short-term working memory impairments (Y-maze),[4]; 15 mg/kg i.p. once 48 h before the test,maintained but less pronounced
same,effect on scopolamine-induced spatial short-term working memory impairments (Y-maze),[4]; administered i.p. 2 h or 1 h before the test,No effect
same,effect on scopolamine-induced spatial short-term working memory impairments (Y-maze),[4]; dose lower than 10 mg/kg i.p.,No effect
same,dose with maximum effect on scopolamine-induced memory impairments (Y-maze),"[4]; i.p. once 24 h before the test, bell-shaped dose-response curve",15 mg/kg
same,spontaneous alternance in Y-maze,"[4]; scopolamine + 10 mg/kg i.p. 24 h before test, scopolamine alone 45, control 70, 10 mg/kg",59%
same,spontaneous alternance in Y-maze,"[4]; scopolamine + 15 mg/kg i.p. 24 h before test, scopolamine alone 45, control 70, 15 mg/kg",69%
"CN1CCCC1c1cccnc1 (stereo not shown) [Nicotine, reference compound]",Spontaneous alternations in T-maze,"[1]; PCP + 0.4 mg/kg i.p. 30 min before trial (D14), PCP alone 30.71, control 66.43, 0.4 mg/kg",62% and 62.14%
C[C@H](NC(c1cccc2[nH]c(=O)c(=O)[nH]c12)P(=O)(O)O)c1ccc(Br)cc1 (stereo partly shown) [NVP-AAM077],NMDA EPSCs amplitude,[3]; NVP-AAM077 0.4 μM,significantly decreased
same,Normalized amplitude of evoked isolated NMDA excitatory postsynaptic currents,[5],56.35 % of control
"CN1[C@@H]2C[C@@H](OC(=O)[C@H](CO)c3ccccc3)C[C@H]1[C@@H]1O[C@@H]12 [Scopolamine, reference compound]",spontaneous alternance in Y-maze,"[4]; scopolamine 0.5 mg/kg s.c. 30 min before test, alone, control 70, mean",45%
